# Measurements: US20240246942A1, “KINASE INHIBITORS FOR THE TREATMENT OF NEURODEGENERATIVE DISEASES” (priority 2020, published 2024)
# Experiments:
# Assay in all cases: biochemical
# [1] = target: T1, panel of 374 wild-type kinases (Homo sapiens, UniProt O14733); settings: read-out: % Enzyme Activity (relative to DMSO controls), MKK7
# T1 construct: purchased Reaction Biology Corporation
# T1 sequence (O14733 1-419): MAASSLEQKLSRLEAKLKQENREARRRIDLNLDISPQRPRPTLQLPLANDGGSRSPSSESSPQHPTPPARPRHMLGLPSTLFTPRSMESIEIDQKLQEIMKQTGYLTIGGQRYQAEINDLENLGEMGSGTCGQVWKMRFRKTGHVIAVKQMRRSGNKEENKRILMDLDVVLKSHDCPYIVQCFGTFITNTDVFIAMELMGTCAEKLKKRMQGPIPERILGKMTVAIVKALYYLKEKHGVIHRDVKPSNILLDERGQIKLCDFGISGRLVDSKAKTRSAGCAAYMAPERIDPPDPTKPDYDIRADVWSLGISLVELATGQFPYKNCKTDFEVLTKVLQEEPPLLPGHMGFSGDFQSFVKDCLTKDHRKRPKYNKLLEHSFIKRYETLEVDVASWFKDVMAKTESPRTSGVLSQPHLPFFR
# [2] = target: T2, panel of 374 wild-type kinases (Homo sapiens, UniProt P15056); settings: read-out: % Enzyme Activity (relative to DMSO controls), BRAF
# T2 construct: purchased Reaction Biology Corporation
# [3] = target: T3, panel of 374 wild-type kinases (Homo sapiens, UniProt P29322); settings: read-out: % Enzyme Activity (relative to DMSO controls), EPHA8
# T3 construct: purchased Reaction Biology Corporation
# T3 sequence (P29322 28-1005): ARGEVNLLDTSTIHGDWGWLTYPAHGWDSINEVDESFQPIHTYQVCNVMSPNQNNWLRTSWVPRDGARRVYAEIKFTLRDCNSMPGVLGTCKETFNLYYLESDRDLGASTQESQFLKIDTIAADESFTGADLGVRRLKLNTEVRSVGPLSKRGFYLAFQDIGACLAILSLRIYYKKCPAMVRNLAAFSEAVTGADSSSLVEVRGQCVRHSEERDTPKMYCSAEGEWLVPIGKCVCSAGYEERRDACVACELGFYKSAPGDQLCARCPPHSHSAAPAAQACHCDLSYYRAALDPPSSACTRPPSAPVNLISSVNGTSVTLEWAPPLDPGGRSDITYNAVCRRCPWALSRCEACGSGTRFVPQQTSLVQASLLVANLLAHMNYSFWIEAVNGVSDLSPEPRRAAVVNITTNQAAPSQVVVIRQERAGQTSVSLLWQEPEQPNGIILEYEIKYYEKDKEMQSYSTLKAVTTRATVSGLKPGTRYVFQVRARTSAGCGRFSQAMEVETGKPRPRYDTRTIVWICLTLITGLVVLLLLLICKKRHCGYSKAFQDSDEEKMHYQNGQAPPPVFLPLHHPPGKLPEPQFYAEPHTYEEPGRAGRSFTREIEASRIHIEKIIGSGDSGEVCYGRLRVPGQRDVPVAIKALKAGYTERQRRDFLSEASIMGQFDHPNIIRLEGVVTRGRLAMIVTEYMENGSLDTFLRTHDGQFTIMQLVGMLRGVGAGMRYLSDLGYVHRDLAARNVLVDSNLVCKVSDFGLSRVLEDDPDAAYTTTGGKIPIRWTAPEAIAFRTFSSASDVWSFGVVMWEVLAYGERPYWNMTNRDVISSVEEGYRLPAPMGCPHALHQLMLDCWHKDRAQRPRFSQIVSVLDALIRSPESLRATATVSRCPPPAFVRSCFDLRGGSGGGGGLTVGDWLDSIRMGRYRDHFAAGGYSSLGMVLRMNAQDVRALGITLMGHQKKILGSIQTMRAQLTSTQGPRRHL
# [4] = target: T4, panel of 374 wild-type kinases (Homo sapiens, UniProt Q13882); settings: read-out: % Enzyme Activity (relative to DMSO controls), BRK
# T4 construct: purchased Reaction Biology Corporation
# [5] = target: T5, panel of 374 wild-type kinases (Homo sapiens, UniProt Q9H2K8); settings: read-out: % Enzyme Activity (relative to DMSO controls), kinase TAOK3/JIK
# T5 construct: purchased Reaction Biology Corporation
# T5 sequence (Q9H2K8 1-898): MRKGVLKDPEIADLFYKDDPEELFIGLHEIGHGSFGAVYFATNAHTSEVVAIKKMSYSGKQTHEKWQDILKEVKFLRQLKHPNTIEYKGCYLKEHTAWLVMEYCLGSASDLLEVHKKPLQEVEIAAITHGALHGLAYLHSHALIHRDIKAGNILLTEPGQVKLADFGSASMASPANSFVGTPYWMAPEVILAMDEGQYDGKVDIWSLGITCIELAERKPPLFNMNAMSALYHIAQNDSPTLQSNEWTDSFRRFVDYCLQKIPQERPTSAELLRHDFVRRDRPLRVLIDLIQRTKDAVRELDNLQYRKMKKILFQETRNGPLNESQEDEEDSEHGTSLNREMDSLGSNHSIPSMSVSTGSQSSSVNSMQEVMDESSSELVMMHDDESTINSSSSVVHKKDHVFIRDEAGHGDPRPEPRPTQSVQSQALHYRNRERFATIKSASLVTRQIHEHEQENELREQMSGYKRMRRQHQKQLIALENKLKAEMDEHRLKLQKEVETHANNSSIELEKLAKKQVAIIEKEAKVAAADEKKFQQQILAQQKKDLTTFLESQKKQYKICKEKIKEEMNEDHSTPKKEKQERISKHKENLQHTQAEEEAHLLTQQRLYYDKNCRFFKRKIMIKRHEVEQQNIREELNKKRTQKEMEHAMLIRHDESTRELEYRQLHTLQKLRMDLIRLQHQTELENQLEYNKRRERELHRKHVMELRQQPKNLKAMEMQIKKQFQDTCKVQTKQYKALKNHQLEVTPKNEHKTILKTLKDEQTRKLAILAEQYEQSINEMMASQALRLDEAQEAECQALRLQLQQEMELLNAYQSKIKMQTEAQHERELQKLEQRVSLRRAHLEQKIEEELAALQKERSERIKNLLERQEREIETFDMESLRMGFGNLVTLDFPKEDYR
# T2 sequence (P15056 whole entry): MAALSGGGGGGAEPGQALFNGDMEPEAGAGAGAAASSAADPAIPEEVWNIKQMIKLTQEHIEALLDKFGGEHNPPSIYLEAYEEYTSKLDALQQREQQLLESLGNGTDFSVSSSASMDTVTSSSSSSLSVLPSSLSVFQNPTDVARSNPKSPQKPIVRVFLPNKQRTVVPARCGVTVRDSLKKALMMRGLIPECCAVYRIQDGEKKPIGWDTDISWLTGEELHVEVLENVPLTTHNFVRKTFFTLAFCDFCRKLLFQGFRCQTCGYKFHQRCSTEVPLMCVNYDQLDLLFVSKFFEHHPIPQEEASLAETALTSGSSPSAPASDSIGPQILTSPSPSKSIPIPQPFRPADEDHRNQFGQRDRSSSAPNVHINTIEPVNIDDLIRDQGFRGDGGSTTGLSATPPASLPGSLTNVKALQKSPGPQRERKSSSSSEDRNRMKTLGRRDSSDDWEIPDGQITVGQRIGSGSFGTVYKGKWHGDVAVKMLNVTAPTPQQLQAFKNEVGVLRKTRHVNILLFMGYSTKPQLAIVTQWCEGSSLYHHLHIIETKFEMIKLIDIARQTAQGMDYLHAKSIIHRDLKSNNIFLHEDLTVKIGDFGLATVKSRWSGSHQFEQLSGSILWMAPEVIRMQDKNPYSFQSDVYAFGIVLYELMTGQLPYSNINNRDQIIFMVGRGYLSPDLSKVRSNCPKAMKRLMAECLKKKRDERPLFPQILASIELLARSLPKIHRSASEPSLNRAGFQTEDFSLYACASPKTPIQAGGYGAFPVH
# T4 sequence (Q13882 whole entry): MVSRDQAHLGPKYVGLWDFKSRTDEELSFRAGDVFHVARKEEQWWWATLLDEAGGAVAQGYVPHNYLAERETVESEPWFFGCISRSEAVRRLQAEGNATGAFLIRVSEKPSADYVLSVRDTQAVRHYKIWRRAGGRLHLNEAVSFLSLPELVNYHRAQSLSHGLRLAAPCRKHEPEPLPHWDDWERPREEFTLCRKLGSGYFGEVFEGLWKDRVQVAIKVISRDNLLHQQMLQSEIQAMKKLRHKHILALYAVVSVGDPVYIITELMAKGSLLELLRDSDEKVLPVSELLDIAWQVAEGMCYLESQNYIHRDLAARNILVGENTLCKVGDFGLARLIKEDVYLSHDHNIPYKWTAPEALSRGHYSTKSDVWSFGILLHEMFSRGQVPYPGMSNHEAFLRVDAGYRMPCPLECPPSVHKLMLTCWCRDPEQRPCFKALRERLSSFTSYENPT
SMILES,remaining activity at 5 µM [1],remaining activity at 5 µM [2],remaining activity at 5 µM [3],remaining activity at 5 µM [4],remaining activity at 5 µM [5],remaining activity at 10 µM ([1]; 10 uM),remaining activity at 10 µM ([2]; 10 uM),remaining activity at 10 µM ([3]; 10 uM),remaining activity at 10 µM ([4]; 10 uM),remaining activity at 10 µM ([5]; 10 uM)
"O=C(Nc1cnn(-c2csc(C(=O)NC3COC3)c2)c1)Nc1ccccc1Cl [Compound 17, 4-(4-(3-(2-chlorophenyl)ureido)-1H-pyrazol-1-yl)-N-(oxetan-3-yl)thiophene-2-carboxamide]",112%,93.3%,103%,118%,103%,–,–,–,–,–
"O=C(Nc1cnn(-c2csc(C(=O)NC3COC3)c2)c1)Nc1c(F)cccc1Cl [Compound 25, 4-(4-(3-(2-chloro-6-fluorophenyl)ureido)-1H-pyrazol-1-yl)-N-(oxetan-3-yl)thiophene-2-carboxamide]",135%,99.9%,93.8%,85.7%,90.2%,–,–,–,–,–
"Cc1sc(C(=O)NC2COC2)cc1-n1cc(NC(=O)Nc2c(F)cccc2Cl)cn1 [Compound 27, 4-(4-(3-(2-chloro-6-fluorophenyl)ureido)-1H-pyrazol-1-yl)-5-methyl-N-(oxetan-3-yl)thiophene-2-carboxamide]",–,–,–,–,–,120%,105%,91.7%,78.9%,98%
